These results are taken from patent US9387221B2, “SDF-1 binding nucleic acids and the use thereof in cancer treatment” (NOXXON Pharma AG, priority 2010, dated 2016).

{PEG40k} = 40 kDa polyethylene glycol

The test system of one series is stromal MS-5 cells. Nature of the series: Viability of stromal MS-5 cells in the coculture. Format: cell-based, murine. As to the method:
The murine stromal cell line MS-5 (ACC 441) was purchased from the DSMZ, the Multiple Myeloma cell line RPMI8226 (CCL-155) was purchased from the ATCC. The Multiple Myeloma cell line RPMI8226 was maintained in RPMI medium 1640 GlutaMAX (Invitrogen) supplemented with 10% FBS (Biochrom) and penicillin-streptomycin, the MS-5 cells were cultured in MEM alpha GlutaMAX (Invitrogen) with 10% FBS and penicillin-streptomycin. For chemosensitization coculture experiments stromal MS-5 cells were seeded the day before onto 24-well plates (the inner eight wells) at a concentration of 8×10^4/mL/well in MEM alpha GlutaMAX medium (+10% FBS) and incubated at 37° C. in 5% CO2. The confluent stromal cell layer was washed and 0.5 mL RPMI medium 1640 (+1% FBS) was added to the wells. SDF-1 binding […] NOX-A12 or revNOX-A12 was subsequently added to the wells to a final concentration of 100 nM and incubated for four hours. 3.5×10^5 RPMI8226 cells in RPMI medium 1640 (+1% FBS) were added to the stromal cell layer. Four hours later, 1 μ[…] (Sigma Aldrich) was added to the cells when indicated. After 40 hours of incubation the cells were collected in 15 mL tubes, first the supernatant was harvested and then the attached cells were trypsinized including MS-5 cells. […] Cell viability and cell number were determined by Flow Cytometry using the Guava EasyCyte 6HT/2L (Millipore).

The target of a further series is SDF-1 (Homo sapiens, UniProt P48061). In words: Inhibition of SDF-1-induced chemotaxis, U937 cells. Format: cell-based. The following applies: 3 nM human SDF-1. As to the method:
The human T cell leukemia cell line Jurkat, the human leukemic monocyte lymphoma cell line U937, the human pre-B cell leukemia cell line BV-173 and human pre-B ALL cell line Nalm-6 express CXCR4. […] All cells used were obtained from the DSMZ (Braunschweig). All cell lines were cultivated at 37° C. and 5% CO2 in RPMI 1640 medium with Glutamax (Invitrogen, Karlsruhe, Germany) which contains 10% fetal bovine serum, 100 units/ml penicillin and 100 μg/ml streptomycin (Invitrogen, Karlsruhe, Germany). One day before the experiment, cells were seeded in a new T175 flask with a density of 0.3×10^6/ml (Jurkat, U937, BV-173) or 0.75×10^6/ml (Nalm-6), respectively.
For the experiment, cells were centrifuged (5 min at 300 g), resuspended, counted and washed once with 15 ml HBH (Hanks balanced salt solution containing 1 mg/ml bovine serum albumin and 20 mM HEPES; Invitrogen, Karlsruhe, Germany). Then the cells were resuspended at 1.33×10^6/ml (Jurkat, U937, BV-173) or 2.67×10^6/ml (Nalm-6), respectively. […]
For evaluation, fluorescence values were corrected for background fluorescence (no cells in well). Then the difference between experimental conditions with and without SDF-1 was calculated. The value for the sample without Spiegelmer (SDF-1 only) was set 100% and the values for the samples with Spiegelmer were calculated as percent of this. […]

The next series deals with RPMI-8226 MM cells. In words: Chemosensitization coculture of RPMI-8226 MM cells with stromal MS-5 cells. Format: cell-based. The following applies: 100 nM NOX-A12, 1 μM F-ara-A, 40 hours. As to the method: In order to mimic the in vivo interaction of the BM microenvironment with leukemia cells, an in vitro coculture system with murine BM stromal MS-5 cells and the multiple myeloma (abbr. MM) cell line RPMI 8226 was established. Aim of the experiment was to show whether SDF-1 binding […] NOX-A12 sensitizes MM cells in coculture with stromal cells to effects of chemotherapeutic agents. Stromal MS-5 cells secreting SDF 1 were incubated with SDF-1 binding […] NOX-A12 or the non-functional revNOX-A12. The MM cell line RPMI-8226 was added to the confluent stromal cell layer. The cells were then incubated with the chemotherapeutic agent F ara A (Fludarabine) for 40 hours. Cell Viability viability was measured. The murine stromal cell line MS-5 (ACC 441) was purchased from the DSMZ, the Multiple Myeloma cell line RPMI8226 (CCL-155) was purchased from the ATCC. The Multiple Myeloma cell line RPMI8226 was maintained in RPMI medium 1640 GlutaMAX (Invitrogen) supplemented with 10% FBS (Biochrom) and penicillin-streptomycin, the MS-5 cells were cultured in MEM alpha GlutaMAX (Invitrogen) with 10% FBS and penicillin-streptomycin. […] Cell viability and cell number were determined by Flow Cytometry using the Guava EasyCyte 6HT/2L (Millipore).

Chain of SDF-1 (P48061 22-89): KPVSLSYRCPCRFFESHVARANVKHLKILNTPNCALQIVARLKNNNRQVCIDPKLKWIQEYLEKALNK

Regarding “5′-40 kDa-PEG-GCGUGGUGUGAUCUAGAUGUAUUGGCUGAUCCUAGUCAGGUACGC (5' {PEG40k}, sugars by position and backbone not given here) [NOX-A12]”, the “viability of stromal MS-5 cells” value in the series on stromal MS-5 cells is given as “neither affected”. The “inhibition of SDF-1 induced chemotaxis” value with SDF-1 is given as “Inhibition”. In the series on RPMI-8226 MM cells, the “cell viability of RPMI-8226 cells cocultured with stromal MS-5 cells” value was “only slightly affected”.
